# “Also recorded” adds a separate entry of the source. Read-outs that look alike come from different tables or passages of the source.
# Tests used:
# [1] = tested on: Kelly cells; assay: Cytotoxicity CellTiter-Glo; format: cell-based, human
# [2] = tested on: T98G cells; assay: Cytotoxicity CellTiter-Glo; format: cell-based, human
# [3] = tested on: MDA-MB-231/ATCC cells; conditions: Breast
# Excerpt: (§1) The methods that were used by the DTP were described on the DTP website: (https://dtp.nci.nih.gov/discovery_development/nci-60/methodology.htm).
# [4] = tested on: OVCAR-4 cells; conditions: OVCAR-4, Ovarian
# Excerpt: as §1
# [5] = tested on: SK-MEL-5 cells; conditions: SK-MEL-5, Melanoma
# Excerpt: as §1
# [6] = tested on: HT29 cells; conditions: HT29, Colon
# Excerpt: as §1
# [7] = tested on: SR cells; conditions: Leukemia
# Excerpt: as §1
# [8] = tested on: LOX IMVI cells; conditions: Melanoma
# Excerpt: as §1
# [9] = tested on: SNB-19 cells; conditions: SNB-19, Central Nervous System
# Excerpt: as §1
# [10] = tested on: OVCAR-8 cells; conditions: OVCAR-8, Ovarian
# Excerpt: as §1
# [11] = tested on: HCC-2998 cells; conditions: HCC-2998, Colon
# Excerpt: as §1
# [12] = tested on: RPMI-8226 cells; conditions: RPMI-8226, Leukemia
# Excerpt: as §1
# [13] = tested on: SF-268 cells; conditions: SF-268, Central Nervous System
# Excerpt: as §1
# [14] = tested on: SW-620 cells; conditions: SW-620, Colon
# Excerpt: as §1
# [15] = tested on: NCI-ADR-RES cells; conditions: Ovarian
# Excerpt: as §1
# [16] = tested on: CCRF-CEM cells; conditions: Leukemia
# Excerpt: as §1
# [17] = tested on: SNB-75 cells; conditions: SNB-75, Central Nervous System
# Excerpt: as §1
# [18] = tested on: PC-3 cells; conditions: PC-3, Prostate
# Excerpt: as §1
# [19] = tested on: BT-549 cells; conditions: BT-549, Breast
# Excerpt: as §1
# [20] = tested on: ACHN cells; conditions: Renal
# Excerpt: as §1
# [21] = tested on: CAKL-1 cells; conditions: CAKL-1, Renal
# Excerpt: as §1
# [22] = tested on: OVCAR-5 cells; conditions: OVCAR-5, Ovarian
# Excerpt: as §1
# [23] = tested on: UACC-62 cells; conditions: UACC-62, Melanoma
# Excerpt: as §1
# [24] = tested on: MDA-MB-468 cells; conditions: MDA-MB-468, Breast
# Excerpt: as §1
# [25] = tested on: K-562 cells; conditions: K-562, Leukemia
# Excerpt: as §1
# [26] = tested on: NCI-H226 cells; conditions: NCI-H226, Non-Small Cell Lung
# Excerpt: as §1
# [27] = tested on: COLO 205 cells; conditions: COLO 205, Colon
# Excerpt: as §1
# [28] = tested on: A549/ATCC cells; conditions: Non-Small Cell Lung
# Excerpt: as §1
# [29] = tested on: SK-MEL-2 cells; conditions: SK-MEL-2, Melanoma
# Excerpt: as §1
# [30] = tested on: NCI-H460 cells; conditions: NCI-H460, Non-Small Cell Lung
# Excerpt: as §1
# [31] = tested on: 786-0 cells; conditions: 786-0, Renal
# Excerpt: as §1
# [32] = tested on: HCT-116 cells; conditions: HCT-116, Colon
# Excerpt: as §1
# [33] = tested on: SK-OV-3 cells; conditions: SK-OV-3, Ovarian
# Excerpt: as §1
# [34] = tested on: HOP-62 cells; conditions: HOP-62, Non-Small Cell Lung
# Excerpt: as §1
# [35] = tested on: KM12 cells; conditions: KM12, Colon
# Excerpt: as §1
# [36] = tested on: HOP-92 cells; conditions: HOP-92, Non-Small Cell Lung
# Excerpt: as §1
# [37] = tested on: NCI-H23 cells; conditions: NCI-H23, Non-Small Cell Lung
# Excerpt: as §1
# [38] = tested on: UACC-257 cells; conditions: UACC-257, Melanoma
# Excerpt: as §1
# [39] = tested on: NCI-H522 cells; conditions: NCI-H522, Non-Small Cell Lung
# Excerpt: as §1
# [40] = tested on: M14 cells; conditions: M14, Melanoma
# Excerpt: as §1
# [41] = tested on: HCT-15 cells; conditions: HCT-15, Colon
# Excerpt: as §1
# [42] = tested on: RMS13 rhabdomyosarcoma xenografts; assay: RMS13 rhabdomyosarcoma xenograft in nu/nu mice; format: in vivo, mouse; conditions: for tumor volume / tumor growth: RMS13 rhabdomyosarcoma xenograft, 5 mg/kg i.v. once a week for 4 weeks
# Description: The xenograft studies were performed by subcutaneous injection of SK-N-DZ (neuroblastoma, 30×10^6 cells/animal) and RMS13 (rhabdomyosarcoma, 20×10^6 cells/animal) in right flank of the male Charles River Laboratories nu/nu mice (7-8 weeks old, weight ˜20 g). Mice were treated by intravenous tail vein injection once a week for 4 weeks. The tumor sizes and body weights were monitored twice a week. Tumor volumes were calculated according to the following formula: volume=height×[…]×length×0.5236.
substance,measurement,setting,value
[Pt(DMSO)methotrexate(Cl)] [SM-69],GI50,[1]; Neuroblastoma,3.7 ± 2.7 µM
same,IC50,"[1]; read-out: IC50 (50% growth inhibition), Neuroblastoma, 72 hours",3.7 ± 2.7 µM
same,IC50,"[2]; read-out: IC50 (50% growth inhibition), Brain, 72 hours",40.8 ± 42.6 µM
same,IC50,"[2]; read-out: IC50 ± S.D. (50% growth inhibition), Brain - High grade, + 1 mM Folic Acid",1.9 ± 0.03 µM
same,IC50,"[2]; read-out: IC50 ± S.D. (50% growth inhibition), Brain - High grade, two independent experiments",0.09 ± 0.007 µM
same,Log10GI50,[3],−4.00 M
same,Log10GI50,[4],−4.00 M
same,Log10GI50,[5],−4.12 M
same,Log10GI50,[6],−5.25 M
same,Log10GI50,[7],−5.52 M
same,Log10GI50,[8],−5.77 M
same,Log10GI50,[9],−4.00 M
same,Log10GI50,[10],−5.36 M
same,Log10GI50,[11],−4.95 M
same,Log10GI50,[12],−4.94 M
same,Log10GI50,[13],−5.04 M
same,Log10GI50,[14],−5.48 M
same,Log10GI50,[15],−5.20 M
same,Log10GI50,[16],−5.39 M
same,Log10GI50,[17],−4.39 M
same,Log10GI50,[18],−5.35 M
same,Log10GI50,[19],−4.00 M
same,Log10GI50,[20],−5.12 M
same,Log10GI50,[21],−5.23 M
same,Log10GI50,[22],−4.61 M
same,Log10GI50,[23],−4.90 M
same,Log10GI50,[24],−5.08 M
same,Log10GI50,[25],−5.79 M
same,Log10GI50,[26],−4.61 M
same,Log10GI50,[27],−4.34 M
same,Log10GI50,[28],−5.30 M
same,Log10GI50,[29],−4.00 M
same,Log10GI50,[30],−5.34 M
same,Log10GI50,[31],−5.46 M
same,Log10GI50,[32],−5.50 M
same,Log10GI50,[33],−4.00 M
same,Log10GI50,[34],−4.26 M
same,Log10GI50,[35],−5.17 M
same,Log10GI50,[36],−4.00 M
same,Log10GI50,[37],−4.45 M
same,Log10GI50,[38],−4.01 M
same,Log10GI50,[39],−4.74 M
same,Log10GI50,[40],−5.41 M
same,Log10GI50,[41],−5.04 M
same,tumor volume / tumor growth,[42]; 5 mg/kg,significantly different compared with other groups; also recorded: significantly lower compared with SM-70
same,tumor volume / tumor growth,"[42]; listed as AT-69, 5 mg/kg",significantly reduces RMS tumor growth; also recorded: inhibited tumor growth; also recorded: more potent than cisplatin
same,survival,"[42]; RMS13 xenograft model, 5 mpk, listed as AT-69, 5 mg/kg",significantly increase survival; also recorded: increase survival rate; also recorded: significantly increased rate of survival

# Reference: patent US10392412B2, “Platinum anticancer agents” (THE REGENTS OF THE UNIVERSITY OF CALIFORNIA, priority 2015, dated 2019)
